Experimental data: PubChem BioAssay (NCI)
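Results reflect a 48-hour exposure of cells in 96-well plates to compound at five concentrations. TGI: total growth inhibition.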

Assays:
Assay in all cases: NCI anticancer screen, dose series, 48 h
786-0 renal = tested on: 786-0 renal
A498 renal = tested on: A498 renal
A549 NSCLC = tested on: A549 NSCLC
ACHN renal = tested on: ACHN renal
BT-549 breast = tested on: BT-549 breast
CAKI-1 renal = tested on: CAKI-1 renal
COLO 205 colon = tested on: COLO 205 colon
DU-145 prostate = tested on: DU-145 prostate
EKVX NSCLC = tested on: EKVX NSCLC
HCC-2998 colon = tested on: HCC-2998 colon
HCT-116 colon = tested on: HCT-116 colon
HCT-15 colon = tested on: HCT-15 colon
HL-60(TB) leukemia = tested on: HL-60(TB) leukemia
HOP-62 NSCLC = tested on: HOP-62 NSCLC
HOP-92 NSCLC = tested on: HOP-92 NSCLC
HS 578T breast = tested on: HS 578T breast
HT29 colon = tested on: HT29 colon
IGROV1 ovarian = tested on: IGROV1 ovarian
K-562 leukemia = tested on: K-562 leukemia
LOX IMVI melanoma = tested on: LOX IMVI melanoma
M14 melanoma = tested on: M14 melanoma
MALME-3M melanoma = tested on: MALME-3M melanoma
MCF7 breast = tested on: MCF7 breast
MDA-MB-231 breast = tested on: MDA-MB-231 breast
MDA-MB-435 = tested on: MDA-MB-435
MDA-N = tested on: MDA-N
NCI-H226 lung = tested on: NCI-H226 lung
NCI-H23 lung = tested on: NCI-H23 lung
NCI-H460 lung = tested on: NCI-H460 lung
NCI-H522 lung = tested on: NCI-H522 lung
NCI/ADR-RES ovarian = tested on: NCI/ADR-RES ovarian
OVCAR-3 ovarian = tested on: OVCAR-3 ovarian
OVCAR-4 ovarian = tested on: OVCAR-4 ovarian
OVCAR-5 ovarian = tested on: OVCAR-5 ovarian
OVCAR-8 ovarian = tested on: OVCAR-8 ovarian
PC-3 prostate = tested on: PC-3 prostate
RPMI-8226 leukemia = tested on: RPMI-8226 leukemia
RXF 393 renal = tested on: RXF 393 renal
SF-268 CNS = tested on: SF-268 CNS
SF-295 CNS = tested on: SF-295 CNS
SF-539 CNS = tested on: SF-539 CNS
SK-MEL-2 melanoma = tested on: SK-MEL-2 melanoma
SK-MEL-28 melanoma = tested on: SK-MEL-28 melanoma
SK-MEL-5 melanoma = tested on: SK-MEL-5 melanoma
SK-OV-3 ovarian = tested on: SK-OV-3 ovarian
SN12C renal = tested on: SN12C renal
SNB-19 CNS = tested on: SNB-19 CNS
SNB-75 CNS = tested on: SNB-75 CNS
SR leukemia = tested on: SR leukemia
SW-620 colon = tested on: SW-620 colon
TK-10 renal = tested on: TK-10 renal
U251 CNS = tested on: U251 CNS
UACC-257 melanoma = tested on: UACC-257 melanoma
UACC-62 melanoma = tested on: UACC-62 melanoma
UO-31 renal = tested on: UO-31 renal
CCRF-CEM leukemia = tested on: CCRF-CEM leukemia
KM12 colon = tested on: KM12 colon
MOLT-4 leukemia = tested on: MOLT-4 leukemia

Measured: TGI

CC1=C(/C=C/C(=O)O)C(C)(C)CCC1
> 100 µM: 786-0 renal | A498 renal | A549 NSCLC | ACHN renal | BT-549 breast | CAKI-1 renal | COLO 205 colon | DU-145 prostate | EKVX NSCLC | HCC-2998 colon | HCT-116 colon | HCT-15 colon | HL-60(TB) leukemia | HOP-62 NSCLC | HOP-92 NSCLC | HS 578T breast | HT29 colon | IGROV1 ovarian | K-562 leukemia | LOX IMVI melanoma | M14 melanoma | MALME-3M melanoma | MCF7 breast | MDA-MB-231 breast | MDA-MB-435 | MDA-N | NCI-H226 lung | NCI-H23 lung | NCI-H460 lung | NCI-H522 lung | NCI/ADR-RES ovarian | OVCAR-3 ovarian | OVCAR-4 ovarian | OVCAR-5 ovarian | OVCAR-8 ovarian | PC-3 prostate | RPMI-8226 leukemia | RXF 393 renal | SF-268 CNS | SF-295 CNS | SF-539 CNS | SK-MEL-2 melanoma | SK-MEL-28 melanoma | SK-MEL-5 melanoma | SK-OV-3 ovarian | SN12C renal | SNB-19 CNS | SNB-75 CNS | SR leukemia | SW-620 colon | TK-10 renal | U251 CNS | UACC-257 melanoma | UACC-62 melanoma | UO-31 renal

CC1(C)C2CCC(CN)(C2)C1O (stereo not given)
> 100 µM: A498 renal | ACHN renal | BT-549 breast | CAKI-1 renal | CCRF-CEM leukemia | EKVX NSCLC | HCC-2998 colon | HCT-15 colon | HL-60(TB) leukemia | HOP-92 NSCLC | K-562 leukemia | KM12 colon | MDA-MB-231 breast | MDA-MB-435 | MDA-N | MOLT-4 leukemia | NCI-H226 lung | NCI-H23 lung | NCI-H460 lung | NCI/ADR-RES ovarian | OVCAR-4 ovarian | OVCAR-8 ovarian | RPMI-8226 leukemia | SF-268 CNS | SK-MEL-28 melanoma | SN12C renal | SNB-19 CNS | SNB-75 CNS | SR leukemia | SW-620 colon | TK-10 renal | U251 CNS | UACC-257 melanoma | UACC-62 melanoma | UO-31 renal
